Measured values published in patent publication US12636291B2, “Compositions and methods relating to use of agonists of ALPHA5-containing GABAA receptors” (Centre for Addiction and Mental Health, priority 2019, dated 2026).

System: pyramidal cells in the CA1 region of the hippocampus
Assay: Golgi staining morphological analysis of CA1 pyramidal cells
Assay type: in vivo, mouse
Settings: for total spine counts, apical dendrites / total spine counts, basal dendrites: FIG. 19B; for overall spine density: FIG. 20A; for spine density, apical dendrites / spine density, basal dendrite: FIG. 20B; for spine density versus branch order, overall: FIG. 21A; for spine density versus branch order, basal dendrites: FIG. 21B; for spine density versus branch order, apical dendrites: FIG. 21C; for spine density at 30 um intervals from the soma, overall: FIG. 22A; for spine density at 30 um intervals from the soma, basal dendrites: FIG. 22B; for spine density at 30 um intervals from the soma, apical dendrites: FIG. 22C
Method: Details of the animals, materials, and methods used are provided following the discussion section below. Briefly, all studies discussed below were conducted using three groups of animals designated “Young” (2 months of age at the beginning of the 8-week study, 4 months of age at time of testing; “Old” (22 months of age at beginning of study, 24 months of age at time of testing); and “Treatment” (“Old” mice who received GL-II-73 in the drinking water for 8 weeks prior to evaluation of cognitive ability and pyramidal cell morphology). The last study further included a fourth group of animals, “Treatment+Washout” which were treated the same as the “Treatment” group except that the GL-II-73 was removed for a 1 week “wash-out” period prior to evaluation of pyramidal cell morphology.
We confirmed and extended these findings by conducting similar analyses of pyramidal cells in a different brain region, namely the CA1 region of the hippocampus, using the same animals. […] As observed above for the pyramidal cells of the PFC, the morphology of the CA1 pyramidal cells in the treatment group was very similar to that of the young mice. […] The positive correlation between the morphological changes observed in each of the three groups of animals in both regions of the brain, CA1 vs PFC brain regions is shown in FIGS. 11-12. This positive correlation of morphological changes across these two regions of the brain indicates a common factor underlying the effects in both regions.
We also performed the same morphological analyses of pyramidal cells in the CA1 region of the hippocampus for each group.
Drug preparation and administration: The compound GL-II-73 was administered in the drinking water for 8 weeks, and made fresh every other day to prevent any deterioration of the compound in the water at room temperature. The solution was prepared at 30 mg/kg for an estimated volume of 8 ml/mouse/day, based on previous calculations. For the pilot study in the 5×FAD mouse model, the compound GL-II-73 was prepared for intra peritoneal injection only, at a dose of 10 mg/kg. Vehicle solution was made of 85% distilled water, 14% propylene glycol and 1% tween-80.
Brain collection and Golgi staining: Twenty-four hours after the completion of the behavioral testing, mice were euthanized using cervical dislocation. Brains were carefully collected from the skull, rinsed with MilliQ water and immersed in the Golgi staining solution provided by Neurodigitech (San Diego, CA). Six hours after the beginning of the incubation, the solution was changed to provide fresh solution. Then brains were left incubating for 14 days at room temperature, in the dark. For better results, vials containing the brains were gently swirled 3 times a week. After the incubation period, the staining solution was discarded and replaced by a storage solution and brains (n=4 per group) were shipped to Neurodigitech for morphological analysis.
Sample selection criteria: The sampling process was conducted as follows: The investigators first 1) previewed the entire rostro-caudal axis of ROIs, under low-mag Zeiss objectives (10× and 20×), 2), compared and located those with the least truncations of distal dendrites as possible under high-mag Zeiss objectives (40× and 63×), 3), and then 4) used a Zeiss 100× objective with immersion oil to perform 3D dendritic reconstruction, followed by counting of the spines throughout the entire dendritic trees. The criteria for selecting candidate neurons for analysis were based on i) visualization of a completely filled soma with no overlap of neighboring soma and completely filled dendrites, ii) the tapering of most distal dendrites; iii) the visualization of the complete 3-D profile of dendritic trees using the 3-D display of imaging software. Neurons with incomplete impregnation and/or neurons with truncations due to the plane of sectioning were not collected. […]

[1] = Table 3, Old, Treatment group, 4 samples
[2] = Table 3, Old, Washout group, 4 samples
[3] = first study, Old+Treatment mice
[4] = washout study, Old+Treatment vs Young mice, p>0.05
[5] = washout study, Washout vs Old mice, p<0.05
[6] = washout study, Old+Treatment vs Old mice, p<0.05

**Q.** With C#Cc1ccc2c(c1)C(c1ccccc1F)=N[C@H](C)c1c(C(=O)N(C)C)ncn1-2 (stereo in doubt) [GL-II-73, 8-ethynyl-6-(2-fluorophenyl)-N,N,4-trimethyl-4H-benzo[f]imidazo[1,5-a][1,4]diazepine-3-carboxamide] as the compound, how does the Total segments (Table 3, washout study, Old, Treatment group (8 weeks GL-II-73), 4 samples) read?
**A.** The Total segments was 1226.

**Q.** And the Overall spinal density [1]?
**A.** The Overall spinal density was 1.07.

**Q.** And the “Total lengths (microns)” value [1]?
**A.** The value was 60170 microns.

**Q.** And the total spine counts [1]?
**A.** The total spine counts was 64468.

**Q.** And the Total segments (Table 3, Old, Washout group (8 weeks GL-II-73, then 1 week wash-out), 4 samples)?
**A.** Its Total segments is 1266.

**Q.** And the Overall spinal density [2]?
**A.** The Overall spinal density was 1.10.

**Q.** And the “Total lengths (microns)” value [2]?
**A.** The value was 65954 microns.

**Q.** What about the total spine counts [2] of the same compound?
**A.** Its total spine counts is 72587.

**Q.** And the “Frequency of Intersections × 30 um interval from soma, apical” value [3]?
**A.** The value was “at 150 um-180 um, apically”.

**Q.** What about the “Frequency of Intersections × 30 um interval from soma, basal” value [3] of the same compound?
**A.** Its value is “higher frequency at 120 um-150 um, basally”.

**Q.** And the “Frequency of Intersections × 30 um interval from soma” value (first study, Old+Treatment vs Old mice)?
**A.** Its value is “higher frequency of intersections at the middle (120 um to 180 um) of the dendritic field than Old mice”.

**Q.** And the spine density (first study, treatment group vs untreated old mice)?
**A.** Its spine density is “relatively higher spine density than the untreated group of old mice”.

**Q.** And the total spine counts (washout study, FIG. 19A, Old+Treatment vs Young mice, p>0.05)?
**A.** The total spine counts was “no difference was found between Young and Old+Treatment as well as Washout mice”.

**Q.** What about the total spine counts (washout study, FIG. 19A, Washout (1 week after 8 weeks GL-II-73) vs Old mice, p<0.05) of the same compound?
**A.** Its total spine counts is “higher spine counts than Old mice”.

**Q.** And the “total spine counts, apical dendrites” value [4]?
**A.** Its value is “no difference in total spine counts of both basal and apical dendrites between Young and Old+Treatment as well as Washout mice”.

**Q.** What about the “total spine counts, basal dendrites” value [4] of the same compound?
**A.** Its value is “no difference in total spine counts of both basal and apical dendrites between Young and Old+Treatment as well as Washout mice”.

**Q.** What about the “total spine counts, apical dendrites” value [5] of the same compound?
**A.** Its value is “higher spine counts of apical dendrites than Old mice”.

**Q.** And the “total spine counts, basal dendrites” value [5]?
**A.** Its value is “higher spine counts of basal dendrites than Old mice”.

**Q.** What about the overall spine density [6] of the same compound?
**A.** Its overall spine density is “higher spine density than Old mice”.

**Q.** What about the overall spine density [5] of the same compound?
**A.** Its overall spine density is “higher spine density than Old mice”.

**Q.** And the “spine density, apical dendrites” value [6]?
**A.** Its value is “Old mice exhibited a lower spine density than Young, Old+Treatment and Washout mice”.

**Q.** What about the “spine density, basal dendrite” value [6] of the same compound?
**A.** The value was “Old mice showed a significant decrease in the basal dendrite as compared to Young, Old+Treatment and Washout mice”.

**Q.** What about the “spine density, apical dendrites” value [5] of the same compound?
**A.** The value was “Old mice exhibited a lower spine density than Young, Old+Treatment and Washout mice”.

**Q.** And the “spine density, basal dendrite” value [5]?
**A.** Its value is “Old mice showed a significant decrease in the basal dendrite as compared to Young, Old+Treatment and Washout mice”.

**Q.** What about the “spine density versus branch order, overall” value [6] of the same compound?
**A.** Its value is “higher spine density at the 1st and 5th branch orders”.

**Q.** What about the “spine density versus branch order, overall” value [5] of the same compound?
**A.** The value was “higher spine density at the 1st and 3rd to 6th”.

**Q.** And the “spine density versus branch order, basal dendrites” value [6]?
**A.** Its value is “higher density at the 1st branch order than Old mice”.

**Q.** And the “spine density versus branch order, basal dendrites” value [5]?
**A.** The value was “higher density at the 1st branch order than Old mice”.

**Q.** What about the “spine density versus branch order, apical dendrites” value [6] of the same compound?
**A.** The value was “higher density at the 1st order than Old mice”.

**Q.** And the “spine density versus branch order, apical dendrites” value [5]?
**A.** Its value is “at the 4th and 5th orders than Old mice”.

**Q.** And the “spine density at 30 um intervals from the soma, overall” value [6]?
**A.** The value was “higher spine density at 30 um to 60 um and 120 um to 240 um from soma”.

**Q.** What about the “spine density at 30 um intervals from the soma, overall” value [5] of the same compound?
**A.** The value was “higher spine density at 30 um to 180 um from soma”.

**Q.** What about the “spine density at 30 um intervals from the soma, basal dendrites” value [6] of the same compound?
**A.** The value was “higher density at 30 um from soma than Old mice”.

**Q.** What about the “spine density at 30 um intervals from the soma, basal dendrites” value [5] of the same compound?
**A.** The value was “higher density at 30 um from soma than Old mice”.

**Q.** And the “spine density at 30 um intervals from the soma, apical dendrites” value [6]?
**A.** Its value is “higher density at 120 um to 180 um from soma than Old mice”.

**Q.** And the “spine density at 30 um intervals from the soma, apical dendrites” value [5]?
**A.** The value was “higher spine density at 30 um to 60 um and 120 um to 210 um from soma than Old mice”.
